According to ChEMBL document CHEMBL3885861, “Open TG-GATES”:

Species: Rattus norvegicus
Test: Open TG-GATES - Regimen: Daily Repeat
Format: toxicity, organism-based, Sprague-Dawley
Set-up: regimen Daily Repeat, gender Male, age 6 weeks
Details: in vivo, po, route gavage; for APTT / Bas / Eos / Fbg / Ht / Lym / MCH / MCHC / MCV / Mono / Neu / Plat / RBC / Ret / WBC: tissue Blood; for ALP / ALT / AST / BUN / CRE / DBIL / GLC / IP / K / LDH / Na / PL / RALB / TBIL / TC / TG / TP / gamma-GTP: tissue Plasma
[1] = 0 mg/kg, 72 h, dose level Control, time 3 day
[2] = 0 mg/kg, […], dose level Control, time 7 day
[3] = 0 mg/kg, […], dose level Control, time 14 day
[4] = 0 mg/kg, […], dose level Control, time 28 day
[5] = 45 mg/kg, 72 h, dose level Low, time 3 day
[6] = 45 mg/kg, […], dose level Low, time 7 day
[7] = 45 mg/kg, […], dose level Low, time 14 day
[8] = 45 mg/kg, […], dose level Low, time 28 day

In the case of `CCCC(CCC)C(=O)O` [VALPROIC ACID], the TERMINAL_BW [1] is reported as 222 g, the APTT [1] is reported as 18.8 s and the Bas [1] is reported as 0%. It also gave an Eos [1] of 1%, a Fbg [1] of 222.8 mg/dL and a Ht [1] of 37.7%. It also gave a Lym [1] of 82.2%, an MCH [1] of 21.3 pg and an MCHC [1] of 34.2%. It also gave an MCV [1] of 62.3 fL, a Mono [1] of 3.4% and a Neu [1] of 12.8%. The Plat [1] was 135 x10_4/uL, the RBC [1] was 604.8 x10_4/ul and the Ret [1] was 6.6%. For the same compound, the WBC [1] was 101 x10_2/uL, the ALP [1] was 1099.6 IU/L and the ALT [1] was 35.6 IU/L. It also gave an AST [1] of 65.4 IU/L, a BUN [1] of 16.2 mg/dL and a CRE [1] of 0.4 mg/dL. It also gave a DBIL [1] of 0.062 mg/dL, a GLC [1] of 216.2 mg/dL and an IP [1] of 8 mg/dL. For the same compound, the K [1] was 4.1 meq/L, the LDH [1] was 206.6 IU/L and the Na [1] was 140.8 meq/L. It also gave a PL [1] of 145.2 mg/dL, an RALB [1] of 3.3 g/dL and a TBIL [1] of 0.1 mg/dL. The TC [1] was 71.6 mg/dL, the TG [1] was 84.6 mg/dL and the TP [1] was 5.4 g/dL. For the same compound, the gamma-GTP [1] was 0.8 IU/L, the TERMINAL_BW [2] was 256.3 g and the TERMINAL_BW [3] was 316.1 g. For the same compound, the TERMINAL_BW [4] was 396.1 g, the APTT [2] was 19.2 s and the Bas [2] was 0%. For the same compound, the Eos [2] was 1%, the Fbg [2] was 210.8 mg/dL and the Ht [2] was 40.7%. It also gave a Lym [2] of 83.8%, an MCH [2] of 21.2 pg and an MCHC [2] of 34.3%. It also gave an MCV [2] of 61.9 fL, a Mono [2] of 2.6% and a Neu [2] of 12.4%. For the same compound, the Plat [2] was 132.8 x10_4/uL, the RBC [2] was 658.4 x10_4/ul and the Ret [2] was 5.8%. For the same compound, the WBC [2] was 96.1 x10_2/uL, the APTT [3] was 18.3 s and the Bas [3] was 0%. The Eos [3] was 1%, the Fbg [3] was 228.2 mg/dL and the Ht [3] was 40.9%. It also gave a Lym [3] of 78.6%, an MCH [3] of 20.7 pg and an MCHC [3] of 35.2%. The MCV [3] was 58.9 fL, the Mono [3] was 2.4% and the Neu [3] was 17.6%. The Plat [3] was 140.4 x10_4/uL, the RBC [3] was 695 x10_4/ul and the Ret [3] was 4.7%. The WBC [3] was 114.6 x10_2/uL, the APTT [4] was 19.4 s and the Bas [4] was 0%. For the same compound, the Eos [4] was 1%, the Fbg [4] was 227.8 mg/dL and the Ht [4] was 42.7%. For the same compound, the Lym [4] was 83%, the MCH [4] was 19.2 pg and the MCHC [4] was 34.9%. It also gave an MCV [4] of 55.1 fL, a Mono [4] of 2.2% and a Neu [4] of 12.8%. The Plat [4] was 108.4 x10_4/uL, the RBC [4] was 775.4 x10_4/ul and the Ret [4] was 2.6%. For the same compound, the WBC [4] was 129.7 x10_2/uL, the ALP [2] was 909.6 IU/L and the ALT [2] was 33.6 IU/L. For the same compound, the AST [2] was 66 IU/L, the BUN [2] was 17.2 mg/dL and the CRE [2] was 0.4 mg/dL. For the same compound, the DBIL [2] was 0.08 mg/dL, the GLC [2] was 223.2 mg/dL and the IP [2] was 8 mg/dL. The K [2] was 3.8 meq/L, the LDH [2] was 199.6 IU/L and the Na [2] was 141 meq/L. For the same compound, the PL [2] was 146.2 mg/dL, the RALB [2] was 3.4 g/dL and the TBIL [2] was 0.1 mg/dL. The TC [2] was 68.8 mg/dL, the TG [2] was 106.4 mg/dL and the TP [2] was 5.5 g/dL. For the same compound, the gamma-GTP [2] was 1.2 IU/L, the ALP [3] was 946.4 IU/L and the ALT [3] was 34.8 IU/L. It also gave an AST [3] of 64.4 IU/L, a BUN [3] of 19 mg/dL and a CRE [3] of 0.4 mg/dL. For the same compound, the DBIL [3] was 0.098 mg/dL, the GLC [3] was 231.4 mg/dL and the IP [3] was 7.1 mg/dL. The K [3] was 3.6 meq/L, the LDH [3] was 198.8 IU/L and the Na [3] was 140.6 meq/L. The PL [3] was 166 mg/dL, the RALB [3] was 3.5 g/dL and the TBIL [3] was 0.1 mg/dL. The TC [3] was 77 mg/dL, the TG [3] was 137.2 mg/dL and the TP [3] was 5.9 g/dL. For the same compound, the gamma-GTP [3] was 1.2 IU/L, the ALP [4] was 657.8 IU/L and the ALT [4] was 34.8 IU/L. For the same compound, the AST [4] was 64.4 IU/L, the BUN [4] was 17.6 mg/dL and the CRE [4] was 0.5 mg/dL. It also gave a DBIL [4] of 0.088 mg/dL, a GLC [4] of 208.8 mg/dL and an IP [4] of 6.9 mg/dL. It also gave a K [4] of 3.9 meq/L, an LDH [4] of 175.2 IU/L and a Na [4] of 140.2 meq/L. It also gave a PL [4] of 150.6 mg/dL, an RALB [4] of 3.5 g/dL and a TBIL [4] of 0.1 mg/dL. For the same compound, the TC [4] was 66.4 mg/dL, the TG [4] was 155 mg/dL and the TP [4] was 6.1 g/dL. The gamma-GTP [4] was 1 IU/L, the TERMINAL_BW [5] was 226.4 g and the APTT [5] was 18.3 s. For the same compound, the Bas [5] was 0%, the Eos [5] was 1% and the Fbg [5] was 221.6 mg/dL. It also gave a Ht [5] of 38.6%, a Lym [5] of 78% and an MCH [5] of 21.7 pg. The MCHC [5] was 34.2%, the MCV [5] was 63.3 fL and the Mono [5] was 3.4%. For the same compound, the Neu [5] was 17%, the Plat [5] was 137.5 x10_4/uL and the RBC [5] was 609.4 x10_4/ul. The Ret [5] was 7.3%, the WBC [5] was 105.8 x10_2/uL and the ALP [5] was 892.6 IU/L. The ALT [5] was 36 IU/L, the AST [5] was 69 IU/L and the BUN [5] was 15.4 mg/dL. For the same compound, the CRE [5] was 0.4 mg/dL, the DBIL [5] was 0.076 mg/dL and the GLC [5] was 210.4 mg/dL. For the same compound, the IP [5] was 8.7 mg/dL, the K [5] was 4 meq/L and the LDH [5] was 217.4 IU/L. The Na [5] was 140.8 meq/L, the PL [5] was 160.4 mg/dL and the RALB [5] was 3.4 g/dL. The TBIL [5] was 0.1 mg/dL, the TC [5] was 78.4 mg/dL and the TG [5] was 84.2 mg/dL. For the same compound, the TP [5] was 5.5 g/dL, the gamma-GTP [5] was 1.4 IU/L and the TERMINAL_BW [6] was 255.3 g. It also gave a TERMINAL_BW [7] of 314.8 g, a TERMINAL_BW [8] of 407 g and an APTT [6] of 19 s. It also gave a Bas [6] of 0%, an Eos [6] of 1% and a Fbg [6] of 211.6 mg/dL. The Ht [6] was 40.1%, the Lym [6] was 82.6% and the MCH [6] was 21.3 pg. The MCHC [6] was 34.4%, the MCV [6] was 62 fL and the Mono [6] was 3%. The Neu [6] was 12.8%, the Plat [6] was 133.3 x10_4/uL and the RBC [6] was 647.4 x10_4/ul. For the same compound, the Ret [6] was 5.7%, the WBC [6] was 143.8 x10_2/uL and the APTT [7] was 18.3 s. It also gave a Bas [7] of 0%, an Eos [7] of 1% and a Fbg [7] of 229.2 mg/dL. The Ht [7] was 41.1%, the Lym [7] was 83.8% and the MCH [7] was 20.7 pg. For the same compound, the MCHC [7] was 35%, the MCV [7] was 59.1 fL and the Mono [7] was 2.6%. It also gave a Neu [7] of 12.2%, a Plat [7] of 130 x10_4/uL and an RBC [7] of 695.4 x10_4/ul. For the same compound, the Ret [7] was 4.7%, the WBC [7] was 113.4 x10_2/uL and the APTT [8] was 19.9 s. The Bas [8] was 0%, the Eos [8] was 1.4% and the Fbg [8] was 214.2 mg/dL. For the same compound, the Ht [8] was 42.1%, the Lym [8] was 82.8% and the MCH [8] was 19.6 pg. For the same compound, the MCHC [8] was 35.1%, the MCV [8] was 55.8 fL and the Mono [8] was 2%. It also gave a Neu [8] of 13.2%, a Plat [8] of 112.1 x10_4/uL and an RBC [8] of 755.6 x10_4/ul. It also gave a Ret [8] of 2.7%, a WBC [8] of 101.3 x10_2/uL and an ALP [6] of 833.2 IU/L. For the same compound, the ALT [6] was 35.2 IU/L, the AST [6] was 65.6 IU/L and the BUN [6] was 16.2 mg/dL. For the same compound, the CRE [6] was 0.4 mg/dL, the DBIL [6] was 0.084 mg/dL and the GLC [6] was 219.6 mg/dL. For the same compound, the IP [6] was 8.2 mg/dL, the K [6] was 3.7 meq/L and the LDH [6] was 193.8 IU/L. For the same compound, the Na [6] was 140.2 meq/L, the PL [6] was 143.4 mg/dL and the RALB [6] was 3.4 g/dL. For the same compound, the TBIL [6] was 0.1 mg/dL, the TC [6] was 73.2 mg/dL and the TG [6] was 86.4 mg/dL. The TP [6] was 5.6 g/dL, the gamma-GTP [6] was 1.6 IU/L and the ALP [7] was 914.4 IU/L. For the same compound, the ALT [7] was 34.8 IU/L, the AST [7] was 65.8 IU/L and the BUN [7] was 17.2 mg/dL. The CRE [7] was 0.4 mg/dL, the DBIL [7] was 0.086 mg/dL and the GLC [7] was 234 mg/dL. The IP [7] was 7.5 mg/dL, the K [7] was 4 meq/L and the LDH [7] was 192 IU/L. For the same compound, the Na [7] was 141.2 meq/L, the PL [7] was 151.2 mg/dL and the RALB [7] was 3.3 g/dL. It also gave a TBIL [7] of 0.1 mg/dL, a TC [7] of 74.4 mg/dL and a TG [7] of 106 mg/dL. It also gave a TP [7] of 5.8 g/dL, a gamma-GTP [7] of 0.8 IU/L and an ALP [8] of 660.2 IU/L. The ALT [8] was 37.4 IU/L, the AST [8] was 65 IU/L and the BUN [8] was 19 mg/dL. For the same compound, the CRE [8] was 0.4 mg/dL, the DBIL [8] was 0.1 mg/dL and the GLC [8] was 200 mg/dL. For the same compound, the IP [8] was 6.8 mg/dL, the K [8] was 3.8 meq/L and the LDH [8] was 168.2 IU/L. The Na [8] was 141.4 meq/L, the PL [8] was 147.2 mg/dL and the RALB [8] was 3.4 g/dL. For the same compound, the TBIL [8] was 0.2 mg/dL, the TC [8] was 63.8 mg/dL and the TG [8] was 158.4 mg/dL.
